According to patent US7531194B2, “Plant extracts for the treatment of rheumatoid arthritis” (Development Center for Biotechnology, priority 2006, dated 2009):

What was measured:
Format in all cases: in vivo, Lewis rats
CIA rats [1] = assay: Maximum arthritic index (MAI) of CIA rats fed PA extracts (Embodiment 4)
Method: After immunization, the rats were observed three times a week. The changes of redness and swelling or the like in limbs were recorded, and photographs were taken and filed for comparison. The scoring of the examinations was based on 5 grades as follows:
Maximum arthritic index, average MAI for each group was calculated as follows: Average MAI=Total of MAI recorded in limbs of each rat (0: no CIA occurs, 16: highest score)/4/total rat number of each group
(§1) In the present animal test, the test animals and apparatus used are the same as those disclosed in embodiment 2.
(§2) The animal test scheme is shown as FIG. 11. Bovine collagen type II was dissolved in 0.1 M acetic acid solution, stirred to dissolve thoroughly, and formulated into solutions of concentrations of 1.5 and 3 mg/ml, which were stored at 4° C. for later use. For the first immune injection, 100 μl of C II solution was emulsified with an equal amount of CFA, and injected subcutaneously (200 μl/rat) in the root portions of tails of the rats after the emulsification was complete. […] After about 15 days, the second immunization was done. 100 μl of C II solution was emulsified with an equal amount of IFA, and injected subcutaneously (200 μl/rat) in the root portions of tails of the rats after the emulsification was complete. Approximately from Day 18, the symptoms of arthritis were observed (CIA rats), and PA and CBX were fed from Day 19 until Day 38.

CIA rats [2] = assay: Joint swelling degree (toe thickness) of CIA rats fed PA extracts (Embodiment 4)
Method: The thickness changes of soles of rats were measured by a Vernier Caliper (twice per week), and there were eight measurement sites in total in each rat, including one site at the center of each sole of the two front feet respectively, and three sites in each of the two back feet (ankle joint, sole, and root portion of toe) respectively.
as §1, §2

Rheumatoid factor (RF) = assay: Serum RF of CIA rats fed PA extracts (Embodiment 4)
Method: 1. Collagen was formulated in a coating buffer to a concentration of 40 μg/ml, 0.1 ml of which was added into a 96-well micro plate respectively, and was kept in 4° C. overnight.
2. After washing with Tris buffer three times, 0.2 ml of blocking buffer containing 1% BSA was added into each well. The reaction lasted for 2 hours at room temperature, and then was washed by Tris buffer three times again.
3. After the serum sample was diluted appropriately with Tris buffer containing 0.05% Tween 20 ( 1/20 or 1/40), 0.1 ml serum sample was added into each well of the 96-well micro plate. The reaction lasted for 2 hours at room temperature, and then was washed by Tris buffer three times again.
4. Coated anti-rat immunoglobulin M (IgM) was combined with horseradish […] (HRP), appropriately diluted ( 1/12000), and then added into the 96-well micro plate. The reaction lasted 2 hours at room temperature, and then was washed by Tris buffer three times again.
5. 0.1 ml of tetramethyl benzidine (TMB) was directly added into each well for color reaction, and then a stopping solution was added to stop the reaction. Finally, absorption (O.D) value was read out at the wavelength of 450 nm.
as §1, §2

IL-6 = assay: PEC cytokine IL-6, CIA rats fed PA extracts (Embodiment 4); settings: PEC of CIA rats, gavage Day 19-38; doses as in the 4th table
Method: (§3) 1. After carbon dioxide euthanasia, the outer furs of the rat abdominal cavity were cut out by scissors, to expose the whole abdominal cavity.
(§4) 2. HBSS buffer was injected into the abdominal cavity batch-wise by a 10 ml syringe to make a total volume of about 20 ml/rat.
(§5) 3. The abdominal cavity of the rat was opened after the abdomen was gently kneaded. An incision of about 2 cm was made in the abdominal cavity by using scissors. Peritoneal exudation cell (PEC) liquid (about 10 to 15 ml of cellular fluid could be collected) was drawn with a syringe, and placed into a 50 ml centrifuge tube.
(§6) 4. The supernatant was removed after the liquid was centrifuged at 1500 rpm for 5 minutes. 10 ml of HBSS buffer was added to wash, and then centrifuged, after which the supernatant was removed.
(§7) 5. The cell concentration was adjusted to 2×10^6 cells/ml with a fresh culture medium (containing antibiotics).
(§8) 6. The cell suspension was divided into a 48-well plate at 0.5 ml/well.
(§9) 7. An additional. 0.5 ml of lipopolysaccharides (LPS) (20 μg/ml) was added separately, making a final concentration of 10 μg/ml.
(§10) 8. Finally, it was placed into a 37° C. incubator for 24 hours. The supernatant was collected, and stored in −20° C. The concentrations of cytokine TNF-α, IL-6, and IL-1β were analyzed by using ELISA kit.
In the present animal test, the test animals and apparatus used are the same as those disclosed in embodiment 2. […]

IL-1β = assay: PEC cytokine IL-1β, CIA rats fed PA extracts (Embodiment 4)
Method: as §3, §4, §5, §6, §7, §8, §9, §10, §1
The animal test scheme is shown as FIG. 11. Bovine collagen type II was dissolved in 0.1 M acetic acid solution, stirred to dissolve thoroughly, and formulated into solutions of concentrations of 1.5 and 3 mg/ml, which were stored at 4° C. for later use. For the first immune injection, 100 μl of C II solution was emulsified with an equal amount of CFA, and injected subcutaneously (200 μl/rat) in the root portions of tails of the rats after the emulsification was complete. […] After about 15 days, the second immunization was done. […]

[3] = gavage Day 19-38, doses as in the 4th table
[4] = PEC of CIA rats, gavage Day 19-38, doses as in the 4th table

Q: `Cc1ccc(-c2cc(C(F)(F)F)nn2-c2ccc(S(N)(=O)=O)cc2)cc1` [CBX, Ceelebrex] was tested. Which “MAI, inhibitory effect” value (CIA rats [1]; [3]) did it give?
A: (40%)

Q: What about the “MAI, inhibitory effect (grade)” value (CIA rats [1]; [3]) of the same molecule?
A: ++ (“++” represents 25 to 50% of inhibitory effect)

Q: What about the “effect on the arthritic indices (MAI) of CIA rats” value (CIA rats [1]; gavage Day 19 until Day 38, FIG. 13) of the same molecule?
A: most preferred

Q: And the “Toe thickness, inhibitory effect (grade)” value (CIA rats [2]; gavage Day 19-38, CBX 18, PA-EtOH 40.5, PA-F1 3.0, PA-F2 1.13, PA-F3 11.3, PA-F4 11.3 mg/kg/day)?
A: ++ (“++” represents 25 to 50% of inhibitory effect)

Q: And the “Toe thickness, inhibitory effect” value (CIA rats [2]; [3])?
A: (49%)

Q: What about the “reduction of serum RF value” (Rheumatoid factor (RF); Day 30 compared to Day 18, FIG. 15) of the same molecule?
A: about 52%

Q: What about the “reduction of serum RF value” (Rheumatoid factor (RF); Day 37 compared to Day 18, FIG. 15) of the same molecule?
A: about 66%

Q: And the “RF, inhibitory effect” value (Rheumatoid factor (RF); [3])?
A: (43%)

Q: And the “RF, inhibitory effect (grade)” value (Rheumatoid factor (RF); [3])?
A: ++ (“++” represents 25 to 50% of inhibitory effect)

Q: What about the “IL-6, inhibitory effect” value (IL-6) of the same molecule?
A: (36%)

Q: And the “IL-6, inhibitory effect (grade)” value (IL-6)?
A: ++ (“++” represents 25 to 50% of inhibitory effect)

Q: What about the “IL-1β, inhibitory effect” value (IL-1β; [4]) of the same molecule?
A: (38%)

Q: What about the “IL-1β, inhibitory effect (grade)” value (IL-1β; [4]) of the same molecule?
A: ++ (“++” represents 25 to 50% of inhibitory effect)

Q: What about the “inhibition of PEC secreting IL-1β” value (IL-1β; PEC of fed CIA rats, FIG. 17) of the same molecule?
A: significantly inhibits
